Test results from patent publication US8415317B2, “Adjuvant compositions and methods for enhancing immune responses to polynucleotide-based vaccines” (priority 1999, dated 2013).
“Also recorded” adds a separate entry of the source.

Legend:
[1] = system: influenza nuclear protein (NP); set-up: species or system mice; details: mouse, in vivo
[2] = system: hemagglutinin (HA); set-up: species or system humans; details: in vivo
[3] = Tolerability of i.m. injection in the mouse model; assay type: in vivo; details: highest dose tested: 100 μg VR4700 plasmid+48 μg GAP-DMORIE+60 μg DPyPE per mouse
Protocol: All cytofectin/co-lipid formulations used in this study remained uniformly opaque for several hours after preparation at room temperature without any visible aggregation. Formulations were injected 20 min-1.5 hours after complexation.

Row | SMILES | level of antibody stimulation (GMT relative to that for pDNA alone) [1] | immune responses of human subjects, HA GMT antibody titer [2] | discomfort or adverse reactions when injected into mouse muscle [3] | humoral immune response, level of antibody titers from pDNA immunization [1]
1 | CCCCCCCCCCCCCCOCC(C[N+](C)(C)CCCN)OCCCCCCCCCCCCCC.[Br-] (racemic) [GAP-DMRIE, (±)-N-(3-aminopropyl)-N,N-dimethyl-2,3-(bis-tetradecyloxy)-1-propanaminium bromide] | no apparent advantage |  |  | 
2 | CCCCCCCCCCCCCCOCC(C[N+](C)(C)CCO)OCCCCCCCCCCCCCC.[Br-] (racemic) [DMRIE, (±)-N-(2-hydroxyethyl)-N,N-dimethyl-2,3-bis(tetradecyloxy)-1-propanaminium bromide] | equally active |  |  | 
3 | CCCCCCCC/C=C\CCCCCCCCOCC(C[N+](C)(C)CCNC(=O)C(CCCNCCCN)NCCCN)OCCCCCCCC/C=C\CCCCCCCC.Cl.Cl.Cl.Cl.[Cl-] (stereo not shown) [DOSPA, 2,3-dioleyloxy-N-(2-(sperminecarboxamido)ethyl)-N,N-dimethyl-1-propanaminium pentahydrochloride] | less active than DORIE; also recorded: dramatically decreases the level of antibody titers relative to those seen for pDNA alone |  |  | 
4 | CCCC/C=C\CCCCCCCCOCC(C[N+](C)(C)CCCN)OCCCCCCCC/C=C\CCCC.[Br-] (racemic) [GAP-DMORIE, (±)-N-(3-aminopropyl)-N,N-dimethyl-2,3-bis(syn-9-tetradeceneyloxy)-1-propanaminium bromide] | markedly enhances antibody responses; also recorded: more active than either DMORIE or GAP-DMRIE | induced | did not appear to produce discomfort or result in any adverse reactions | synergistic effect to further enhance the humoral immune response
